Source: US6436903B1, “Immunomodulating compounds comprising d-isomers of amino acids” (Stanford University (Board of Trustees of the Leland …, priority 1996, dated 2002)
“Also recorded” adds a separate entry of the source. No end group written: not given here.

How the values were obtained:
[1] = system: CD8+ CTL line specific for HLA-A2; experiment: Cytotoxicity assay: inhibition of lysis by established CTL (51Cr-labeled JY targets); format: cell-based, human
Experimental: CTL assays were performed as described using ^51Cr-labeled EBV transformed B cells expressing the appropriate HLA allele as targets [[…] et al., J. Immunol. (1982) 129:2001]. In the present protocol, a CD8+ CTL line specific for HLA-A2 was tested in the presence of various peptides for lysis of ^51Cr-labeled JY targets. Peptides were added to a final concentration of 100 μg/ml at the initiation of the 4 h assay. Each determination was the mean of triplicate wells.

[2] = system: abdominal heterotopic heart allografts; experiment: Cardiac allograft survival in rats (Lew heart into ACI recipients); format: in vivo, rat; details: peptide in the two weeks before or 4 days after surgery plus CsA on days 0-4, rats
From the text: Vascularized cardiac allografts were heterotypically transplanted into the abdomen of recipient rats using a modification of the technique of Ono and Lindsay (Ono and Lindsey J. Thorac. Cardiovasc. Surg. (1969) 57:225). Abdominal allografts were palpated on a daily basis to assess graft function, and rejection was deemed complete when palpable ventricular contractions ceased.
Cyclosporin A (CsA, Sandoz Pharmaceuticals Corporation, Base, Switzerland) dissolved in olive oil was given orally through a gavage tube at the indicated dose. Peptides were dissolved in water or saline and given intravenously or by gavage as indicated.
Since the B7.75-84 and B2702.75-84 peptides blocked cellular immunity in vivo, we examined their effects on allograft survival in rats. ACI (RT1^a) recipients were given abdominal heterotopic heart allografts from Lew donors (Moeller et al. 1993, supra; Ono and Lindsey. 1969, supra). Graft function was monitored by daily abdominal palpation, and rejection was scored as complete when the palpable ventricular contractions ceased.

purified T cells = experiment: Proliferation of purified T cells stimulated by immobilized anti-CD3; format: cell-based, human; details: immobilized anti-CD3 antibody
Experimental: PBL were isolated from normal donors by centrifugation over Ficoll-Hypaque. In some cases, T cells were purified from this preparation using the method of Secrist et al. [J Exp. Med. (1993) 178:2123]. Briefly, cells isolated over Ficoll-Hypaque were incubated for 1 hour in Petri dishes. Nonadherent cells were passed over a nylon wool column and the resulting population was >90% CD3+ by FACS analysis. CD8+ CTL lines specific for HLA-A2, B7, B27, B48, or Cw4 were generated and maintained in long-term culture as previously described [Buxton et al., J Exp. Med. (1992) 175:809; Wesley et al., Hum. Immunol. (1993) 36:149]. Jurkat E6-1 and the T cell receptor negative Jurkat, JRT3-T3.5, were obtained from the American Type Culture Collection (ATCC; Rockville, Md.). […]
10^5 cells were added to microtiter wells that had been coated with anti-CD3 (Sigma, St. Louis, Mo.) at 5 μg/ml. […] Plates were harvested on a PHD Cell Harvester 24 hours later and [^3H]-thymidine incorporation determined by scintillation counting.
Peptides were evaluated for effects on the proliferation of purified T cells stimulated by immobilized anti-CD3 antibody. […]

rat splenocytes = experiment: Differentiation of rat splenocytes into allospecific CTL in vitro; format: cell-based
[3] = system: Lew specific CTL precursors in splenocytes; experiment: Limiting dilution assay for CTL precursors in splenocytes of treated rats; format: in vivo, rat; details: treated on the day of splenectomy or 24 hours earlier
Experimental: The effect of peptides on CTL precursor frequencies in splenocytes was tested as follows. Limiting dilution analysis was carried out essentially as described (Moeller et al. 1993, supra; Skinner and Marbrook. J. Exp. Med. (1976) 143:1562). Briefly, spleens were removed from naive animals or from animals that had received an allograft a minimum of 60 days earlier and then teased into a single cell suspension. Responder cells were plated from 1000 to 40,000 cells per well (24 replicates per concentration) into round bottom microliter wells in RPMI 1640 supplemented with 10% fetal bovine serum (Hyclone, Logan, Utah), 2 mM L-glutamine, 5×10^5M μ-mercaptoethanol, 100 U/ml penicillin, 100 μg/ml streptomycin, 20% supernatant from Concanavalin A activated rat spleen cells, and 50 μM α-methyl mannoside. Then, 5×10^5 irradiated (2000 rads) stimulator cells were added to each well and plates were incubated in a humidified CO2 incubator. […] Aliquots of supernatant were counted in a gamma counter and CTL precursor frequency determined by linear regression (Skinner and Marbrook. 1976, supra). […]
PVG (RT1^c) or ACI (RT1^a) rats were treated with a single intravenous injection of saline or 2 mg of A2.75-84, B7.75-84, B2702.75-84, or RT1^a.75-84 peptide. […] CTL precursor frequency was determined by linear regression analysis.

draining lymph nodes = experiment: Lymph node proliferation assay (footpad challenge with allogeneic versus syngeneic splenocytes); format: in vivo, rat; details: treated within 24 hours of footpad injection
Experimental: ACI or PVG rats (200 g) were injected intravenously with peptides dissolved in saline on day 0. On the indicated days thereafter, the left rear footpads of the rats were injected with 5×10^6 splenocytes from a syngeneic donor and the right rear footpads with 5×10^6 splenocytes from an allogeneic Lew donor (Moeller etal. Transplantation (1993)55:650). See also Twist and Barnes Transplantation (1973) 15:182; Fanslow et al. Science (1990) 248:739). Seven days after the footpad injection, the animals were sacrificed and the popliteal lymph nodes removed. A single cell suspension was prepared, and the cell number determined using a hemocytometer.
PVG or ACI rats (3 per group) were given a single intravenous injection of 2 mg of each of the four peptides or saline. On the day of treatment, or on days 1, 7, or 10 after treatment, the right footpads were injected with 5×10^6 syngeneic splenocytes while the left footpads were injected with 5×10^6 allogeneic Lew splenocytes. Seven days after the footpad injections, the draining lymph nodes were removed, a single cell suspension was prepared, and the cell number determined.

Row | Substance | inhibition of lysis by established CTL ([1]; HLA-A2 specific CD8+ CTL, 51Cr-labeled JY targets, peptide 100 μg/ml, 4 h assay) | allograft rejection under peptide in combination with CsA [2] | inhibition of proliferation of purified T cells (3H-thymidine incorporation) (purified T cells) | blocking of differentiation of rat splenocytes into allospecific CTL (rat splenocytes) | precursor frequency of Lew specific cells compared with saline [3] | ratio of the number of cells recovered, allogeneic versus syngeneic side (draining lymph nodes) | potency relative to B2702.75-84, based on the concentration required to achieve 50% inhibition of cytotoxicity [1]
1 | B2702.75-84: synthetic peptide, HLA-B2702 residues 75-84, sequence RENLRIALRY [Peptide B2702.75-84] | inhibited lysis by established CTL | rejected similarly to allografts in animals treated with CsA alone; also recorded: did not show prevention of allograft rejection | do not | blocked the differentiation of rat splenocytes into allospecific CTL in vitro | The same frequency | A similar ratio | –
2 | WDRETQICKAKAQTDRENLRIALRY [Peptide B2702.60-84] | – | – | – | – | – | – | approximately 5 fold
